From US20080214654A1, “Substituted Benzyloxy-Phenylmethylamide Derivatives” (Bayer HealthCare AG, priority 2004, published 2008) come the findings set out here.

The structures appear in SMILES notation. Counter-ions that a name gives are not always drawn.

T1 sequence (Q7Z2W7 whole entry): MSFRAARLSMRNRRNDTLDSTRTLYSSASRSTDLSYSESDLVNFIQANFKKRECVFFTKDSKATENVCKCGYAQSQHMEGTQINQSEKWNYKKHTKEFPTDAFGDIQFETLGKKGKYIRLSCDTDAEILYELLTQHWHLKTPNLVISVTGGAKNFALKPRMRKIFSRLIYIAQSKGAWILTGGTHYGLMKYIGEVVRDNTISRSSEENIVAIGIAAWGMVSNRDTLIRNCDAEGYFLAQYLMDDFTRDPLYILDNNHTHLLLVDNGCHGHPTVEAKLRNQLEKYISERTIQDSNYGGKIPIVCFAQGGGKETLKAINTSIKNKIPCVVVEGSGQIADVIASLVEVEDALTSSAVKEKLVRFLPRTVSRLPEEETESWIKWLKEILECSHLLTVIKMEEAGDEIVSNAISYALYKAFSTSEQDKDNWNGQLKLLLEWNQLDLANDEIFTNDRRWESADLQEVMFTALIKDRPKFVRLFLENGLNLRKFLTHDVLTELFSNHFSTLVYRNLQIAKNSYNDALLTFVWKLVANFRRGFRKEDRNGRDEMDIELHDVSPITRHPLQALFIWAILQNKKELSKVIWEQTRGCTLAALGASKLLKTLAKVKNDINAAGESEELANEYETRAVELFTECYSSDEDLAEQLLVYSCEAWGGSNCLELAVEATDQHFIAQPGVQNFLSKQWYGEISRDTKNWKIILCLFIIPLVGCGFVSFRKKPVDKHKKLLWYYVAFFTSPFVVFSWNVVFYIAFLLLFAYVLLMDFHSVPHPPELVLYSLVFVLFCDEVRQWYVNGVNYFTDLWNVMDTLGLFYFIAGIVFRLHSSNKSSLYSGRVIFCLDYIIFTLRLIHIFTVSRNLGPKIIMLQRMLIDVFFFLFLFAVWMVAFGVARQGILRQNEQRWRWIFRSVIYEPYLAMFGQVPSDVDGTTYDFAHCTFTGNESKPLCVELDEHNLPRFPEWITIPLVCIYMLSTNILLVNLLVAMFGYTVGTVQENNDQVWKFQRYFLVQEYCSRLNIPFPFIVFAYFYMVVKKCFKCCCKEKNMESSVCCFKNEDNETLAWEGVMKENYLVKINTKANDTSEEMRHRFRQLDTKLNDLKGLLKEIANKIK

This experiment concerns the target T1, human CMR-1 (Homo sapiens, UniProt Q7Z2W7).
T1 construct: expressed in transfected cells
The experiment is described as follows: Measurement of the menthol-induced Ca2+ influx in HEK293 cells expressing CMR-1 receptor (Assay 1). In kind it is cell-based. The conditions noted are these: HEK293 cells stably expressing human CMR-1; preincubation with compound, menthol stimulation; fluo4-AM fluorescence. From the text: Measurement of the Menthol-Induced Ca^2+ Influx in […] Cell Expressing CMR-1 Receptor (Assay 1).
A cell-based calcium influx assay using HEK293 cells stably expressing human CMR-1 is used to identify CMR-1 receptor-antagonists. Menthol, a CMR-1 specific agonist, is used for stimulation of these cells, inducing an increase in intracellular calcium. This menthol-induced Ca^2+ increase is traced by fluorescence measurement. Therefore the cells are loaded with fluo4-AM prior to stimulation. For testing inhibitors the cells are preincubated with various concentrations of the compound before menthol stimulation. The potency of potential CMR-1 inhibitors is quantified by measuring decrease of fluorescence.
On to `COc1cc(CN(CCN)C(=O)c2ccccc2)ccc1OCc1ccccc1` [Example 4-1, N-(2-aminoethyl)-N-[4-(benzyloxy)-3-methoxybenzyl]benzamide trifluoroacetate], for which the half-maximal inhibitory concentration (IC50) amounted to 150 nM.
As for `COc1cc(CN(CCN)C(=O)c2cccs2)ccc1OCc1ccccc1` [Example 3-1, N-(2-aminoethyl)-N-[4-(benzyloxy)-3-methoxybenzyl]thiophene-2-carboxamide hydrochloride], the IC50 was determined as 1 nM.
For the molecule `COc1cc(CN(CCN)C(=O)CC(C)(C)C)ccc1OCc1ccc(F)cc1F` [Example 20], the IC50 amounted to 8 nM.
Take `COc1cc(CN(CCN)C(=O)c2cccs2)ccc1OCc1ccccc1F` [Example 17, N-(2-aminoethyl)-N-{4-[(2-fluorobenzyl)oxy]-3-methoxybenzyl}thiophene-2-carboxamide trifluoroacetate]: the IC50 is 1 nM.
`COc1cc(CN(Cc2ccccc2)C(=O)c2ccccc2)ccc1OCc1ccc(F)cc1` [Example 38, N-benzyl-N-{4-[(4-fluorobenzyl)oxy]-3-methoxybenzyl}benzamide]: the IC50 was 40 nM.
Under `COc1cc(CN(CCCNC(=O)OC(C)(C)C)C(=O)c2cccs2)ccc1OCc1ccc(F)cc1` [Example 10] stands 70 nM.

A word on the IC50: it is the concentration that gives 50% inhibition.
